Our source for the IC50 values is patent EP4678634A1, “ANDROGEN RECEPTOR MODULATORS AND USES THEREOF” (Haihe Biopharma Co., Ltd., priority 2023, dated 2024).

This assay concerns the target T1, Androgen receptor (AR) (Homo sapiens, UniProt P10275).
T1 construct: expressed in transfected cells; host or cells: HEK293T (AR+ARE/Luc)
T1 sequence (P10275 1-920): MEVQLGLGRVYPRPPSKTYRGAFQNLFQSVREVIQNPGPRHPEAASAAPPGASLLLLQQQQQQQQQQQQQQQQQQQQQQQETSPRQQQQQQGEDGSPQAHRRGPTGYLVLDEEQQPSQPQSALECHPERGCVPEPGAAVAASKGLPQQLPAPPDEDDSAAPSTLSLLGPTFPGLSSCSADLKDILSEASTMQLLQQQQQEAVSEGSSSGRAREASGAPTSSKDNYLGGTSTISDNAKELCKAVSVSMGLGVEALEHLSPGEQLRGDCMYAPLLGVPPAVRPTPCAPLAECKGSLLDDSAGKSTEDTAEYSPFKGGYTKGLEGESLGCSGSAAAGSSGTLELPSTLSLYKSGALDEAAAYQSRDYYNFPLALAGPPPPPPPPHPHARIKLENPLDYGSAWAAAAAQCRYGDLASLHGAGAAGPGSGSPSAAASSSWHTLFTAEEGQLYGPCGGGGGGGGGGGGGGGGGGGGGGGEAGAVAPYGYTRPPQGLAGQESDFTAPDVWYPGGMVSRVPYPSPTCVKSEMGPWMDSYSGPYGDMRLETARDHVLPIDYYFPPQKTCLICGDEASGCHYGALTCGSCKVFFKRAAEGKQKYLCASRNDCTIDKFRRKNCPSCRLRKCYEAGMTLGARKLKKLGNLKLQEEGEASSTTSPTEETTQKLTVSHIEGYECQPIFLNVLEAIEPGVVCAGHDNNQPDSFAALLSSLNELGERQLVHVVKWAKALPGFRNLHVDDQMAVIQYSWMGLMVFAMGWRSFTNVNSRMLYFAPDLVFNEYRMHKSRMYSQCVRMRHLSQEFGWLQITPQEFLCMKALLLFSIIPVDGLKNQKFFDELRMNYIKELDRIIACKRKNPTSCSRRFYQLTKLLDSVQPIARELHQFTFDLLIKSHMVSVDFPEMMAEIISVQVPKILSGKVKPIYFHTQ
In words: Androgen receptor (AR) reporter gene assay (luciferase). Format: cell-based. The note with it: AR+ARE/Luc HEK293T cells, stimulated with 11-KDHT, 24h incubation, Bright-Lite luminescence; read-out: HEK293 Luc IC50. The procedure:
Androgen receptor (AR) reporter gene assay
Experimental reagents: 11-Ketodihydrotestosterone (11-KDHT) was purchased from MCE (cat.HY-135794); Enzalutamide (MDV3100) was purchased from Selleck (cat.S1250); Bright-Lite Luciferase Assay kit was purchased from Vazyme (cat.DD1204-01);
• 1. dissolve the described compounds in 100% DMSO at a final concentration of 10 mM. 100 nL each of 400X compound to be tested and 400X 11-KDHT (40 nM) were added to a 384-well assay plate with Echo, followed by 20 µL of complete medium, and centrifuged at 1000 rpm for 1 min, and oscillated for 20-30 min at room temperature. • 2. 20 µL of AR+ARE/Luc HEK293T cells (10,000 cells/well) were inoculated into the assay plate containing the compounds and 11-KDHT, and centrifuged at 1000 rpm for 1 min. The assay plate was incubated in a 37 °C CO2 incubator for 24h. • 3. 40 µL of Bright-Lite assay reagent was transferred to each well of the assay plate, centrifuged at 1000 rpm for 1 min, and shaken for 2 min at room temperature protected from light. Luminescence values (RLU) were measured using Envision. Based on the results, the IC50 values of the compounds described were calculated. Table 1 HEK293-Luc% inhibition IC50 of representative compounds
In the case of `CN1CCc2c(cc(Cl)c(OCCCl)c2Cl)C1c1ccc2[nH]ncc2c1` (racemic) [HANT-146, 5,7-dichloro-6-(2-chloroethoxy)-1-(1H-indazol-5-yl)-2-methyl-1,2,3,4-tetrahydroisoquinoline], the IC50 was 0.001 to 0.5 µM.

On to `N#Cc1cc2c(c(Cl)c1OCCCl)CCCC2Nc1cnc2[nH]ncc2c1` (racemic) [HANT-192, 8-((1H-pyrazolo[3,4-b]pyridin-5-yl)amino)-4-chloro-3-(2-chloroethoxy)-5,6,7,8-tetrahydronaph thalene-2-carbonitrile], for which the IC50 is 0.001 to 0.5 µM.

Consider `N#Cc1cc2c(c(Cl)c1OCCCl)CCCC2c1cnc(N)nc1` (racemic) [HANT-204], for which the IC50 fell in the range of 0.001 to 0.5 µM.

As to `ClCCOc1c(Cl)cc2c(c1Cl)CCCC2c1ccc2[nH]ncc2c1` (stereo not drawn) [HANT-100, 5-(5,7-dichloro-6-(2-chloroethoxy)-1,2,3,4-tetrahydronaphthalen-1-yl)-1H-indazole], the IC50 lay within 0.001 to 0.5 µM.

Take `Oc1ccc(C2CCCc3c2cc(Cl)c(OCCCl)c3Cl)cn1` (stereo not drawn) [HANT-101]: the IC50 fell in the range of 1 to 2 µM.

As for `Oc1ccc(C2CCCc3c2cc(Cl)c(OCCCl)c3Cl)nc1` (stereo not drawn) [HANT-102, 6-(5,7-dichloro-6-(2-chloroethoxy)-1,2,3,4-tetrahydronaphthalen-1-yl)pyridin-3-ol], the IC50 is 0.5 to 1 µM.

As for `Fc1cc2c(c(F)c1OCCCl)CCCC2c1ccc2[nH]ncc2c1` (stereo not drawn) [HANT-103, 5-(6-(2-chloroethoxy)-5,7-difluoro-1,2,3,4-tetrahydronaphthalen-1-yl)-1H indazole], the IC50 was 0.5 to 1 µM.

`N#Cc1cc2c(c(Cl)c1OCCCl)CCCC2c1ccc(O)cc1` (stereo not drawn) [HANT-105, 4-chloro-3-(2-chloroethoxy)-8-(4-hydroxyphenyl)-5,6,7,8-tetrahydronaphthalene-2-carbonitrile]: the IC50 lay in the range of 0.001 to 0.5 µM.

For the molecule `N#Cc1c2c(cc(Cl)c1OCCCl)C(c1ccc(O)cc1)CCC2` (stereo not drawn) [HANT-106, 3-chloro-2-(2-chloroethoxy)-5-(4-hydroxyphenyl)-5,6,7,8-tetrahydronaphthalene-1-carbonitrile], the IC50 lay in the range of 0.001 to 0.5 µM.

Regarding `Oc1ccc(C2CCc3cc(OCCCl)c(Cl)cc32)cc1` (stereo not drawn) [HANT-107, 4-(6-chloro-5-(2-chloroethoxy)-2,3-dihydro-1H-inden-1-yl)phenol], the IC50 lay in the range of 1 to 2 µM.

For the molecule `Oc1ccc(C2CCc3c2ccc(OCCCl)c3Cl)cc1` (stereo not drawn) [HANT-108, 4-(4-chloro-5-(2-chloroethoxy)-2,3-dihydro-1H-inden-1-yl)phenol], the IC50 was in the range of 0.001 to 0.5 µM.

Take `Oc1ccc(C2CCCc3c2cc(Cl)c(OCCCl)c3Cl)cc1F` (stereo not drawn) [HANT-109]: the IC50 was 1 to 2 µM.

Regarding `Oc1ccc(C2CCCc3c2cc(Cl)c(OCCCl)c3Cl)c(F)c1` (stereo not drawn) [HANT-110, 4-(5,7-dichloro-6-(2-chloroethoxy)-1,2,3,4-tetrahydronaphthalen-1-yl)-3-fluorophenol], the IC50 lay within 0.001 to 0.5 µM.

In the case of `ClCCOc1c(Cl)cc2c(c1Cl)CCCC2c1ccc2[nH]cnc2c1` (stereo not drawn) [HANT-112], the IC50 fell in the range of 0.5 to 1 µM.

Regarding `ClCCOc1c(Cl)cc2c(c1Cl)CCCC2c1ccc2[nH]nnc2c1` (stereo not drawn) [HANT-113, 5-(5,7-dichloro-6-(2-chloroethoxy)-1,2,3,4-tetrahydronaphthalen-1-yl)-1H-benzo[d][1,2,3]triaz ole], the IC50 was in the range of 0.5 to 1 µM.

As to `O=c1[nH]c2ccc(C3CCCc4c3cc(Cl)c(OCCCl)c4Cl)cc2o1` (stereo not drawn) [HANT-114], the IC50 lay in the range of 0.001 to 0.5 µM.

For `CN1CCc2c(cc(Cl)c(OCCCl)c2Cl)C1c1ccc(O)cc1` (stereo not drawn) [HANT-115, 4-(5,7-dichloro-6-(2-chloroethoxy)-2-methyl-1,2,3,4-tetrahydroisoquinolin-1-yl)phenol], the IC50 fell in the range of 0.001 to 0.5 µM.

For `Cn1c(=O)[nH]c2ccc(C3CCCc4c3cc(Cl)c(OCCCl)c4Cl)cc21` (stereo not drawn) [HANT-117], the IC50 is 1 to 2 µM.

As for `ClCCOc1c(Cl)cc2c(c1Cl)CCC[C@H]2c1ccc2[nH]ncc2c1` [HANT-118], the IC50 lay within 0.001 to 0.5 µM.

Consider `CCCOc1c(C#N)cc2c(c1Cl)CCCC2Nc1ccc(OC)nc1` (stereo not drawn) [HANT-121], for which the IC50 was 0.001 to 0.5 µM.

On to `N#Cc1cc2c(c(Cl)c1OCCCl)CCCC2Nc1ccc(OCCO)nc1` (stereo not drawn) [HANT-122], for which the IC50 was 0.001 to 0.5 µM.

Consider `OC1CCN(C2CCCc3c2cc(Cl)c(OCCCl)c3Cl)CC1` (stereo not drawn) [HANT-123], for which the IC50 lay within 0.5 to 1 µM.

`Oc1ccc2c(c1)CCN(C1CCCc3c1cc(Cl)c(OCCCl)c3Cl)C2` (stereo not drawn) [HANT-124, 2-(5,7-dichloro-6-(2-chloroethoxy)-1,2,3,4-tetrahydronaphthalen-1-yl)-1,2,3,4-tetrahydroisoqui nolin-6-ol]: the IC50 is greater than 2 µM.

With `ClCCOc1c(Cl)cc2c(c1Cl)CCCC2N1CCc2[nH]ncc2C1` (stereo not drawn) [HANT-125], the IC50 fell in the range of 0.001 to 0.5 µM.

As to `ClCCOc1c(Cl)cc2c(c1Cl)CCCC2N1CCc2cn[nH]c2C1` (stereo not drawn) [HANT-126], the IC50 was 0.5 to 1 µM.

As for `ClCCOc1c(Cl)cc2c(c1Cl)CCCN2c1ccc2[nH]ncc2c1` [HANT-127, 5,7-dichloro-6-(2-chloroethoxy)-1-(1H-indazol-5-yl)-1,2,3,4-tetrahydroquinoline], the IC50 was in the range of 0.5 to 1 µM.

Turning to `Cn1ncc2cc(C3CCCc4c3cc(Cl)c(OCCCl)c4Cl)ccc21` (stereo not drawn) [HANT-131], the IC50 is greater than 2 µM.

For `CNC(=O)c1n[nH]c2ccc(C3CCCc4c3cc(Cl)c(OCCCl)c4Cl)cc12` (stereo not drawn) [HANT-132, 5-(5,7-dichloro-6-(2-chloroethoxy)-1,2,3,4-tetrahydronaphthalen-1-yl)-N-methyl-1H-indazole-3-carboxamide], the IC50 was greater than 2 µM.

`Nc1n[nH]c2ccc(C3CCCc4c3cc(Cl)c(OCCCl)c4Cl)cc12` (stereo not drawn) [HANT-133, 5-(5,7-dichloro-6-(2-chloroethoxy)-1,2,3,4-tetrahydronaphthalen-1-yl)-1H-indazol-3-amine]: the IC50 fell in the range of 1 to 2 µM.

With `ClCCOc1c(Cl)cc2c(c1Cl)CCCC2c1ccc2cn[nH]c2c1` (stereo not drawn) [HANT-134], the IC50 is 0.001 to 0.5 µM.

As for `O=C1Cc2cc(C3CCCc4c3cc(Cl)c(OCCCl)c4Cl)ccc2N1` (stereo not drawn) [HANT-135], the half-maximal inhibitory concentration (IC50) lay in the range of 0.001 to 0.5 µM.

As for `COc1cc(O)ccc1C1CCCc2c1cc(Cl)c(OCCCl)c2Cl` (stereo not drawn) [HANT-137], the IC50 was in the range of 1 to 2 µM.

As to `N#Cc1cc2c(c(Cl)c1OCCCl)CCCC2c1ccc2[nH]ncc2c1` (stereo not drawn) [HANT-144A, 4-chloro-3-(2-chloroethoxy)-8-(1H-indazol-5-yl)-5,6,7,8-tetrahydronaphthalene-2-carbonitrile], the IC50 is greater than 2 µM.

As for `N#Cc1cc2c(c(Cl)c1OCCCl)CCCC2c1ccc2[nH]ncc2c1` (stereo not drawn) [HANT-144B, 4-chloro-3-(2-chloroethoxy)-8-(1H-indazol-5-yl)-5,6,7,8-tetrahydronaphthalene-2-carbonitrile], the IC50 lay within 0.001 to 0.5 µM.

`N#Cc1cc2c(c(Cl)c1OCCCl)CCCC2c1ccc2[nH]ncc2n1` (stereo not drawn) [HANT-148, 4-chloro-3-(2-chloroethoxy)-8-(1H-pyrazolo[4,3-b]pyridin-5-yl)-5,6,7,8-tetrahydronaphthalene-2-carbonitrile]: the concentration for half-maximal inhibition (IC50) fell in the range of 0.5 to 1 µM.

For the molecule `N#Cc1cc2c(c(Cl)c1OCCCl)CCCC2c1cc2cn[nH]c2cn1` (stereo not drawn) [HANT-149], the IC50 lay in the range of 0.001 to 0.5 µM.

Regarding `N#Cc1cc2c(c(Cl)c1OCCCl)CCCC2c1cnc2[nH]ncc2c1` (stereo not drawn) [HANT-150A, 4-chloro-3-(2-chloroethoxy)-8-(1H-pyrazolo[3,4-b]pyridin-5-yl)-5,6,7,8-tetrahydronaphthalene-2-carbonitrile], the IC50 is 0.001 to 0.5 µM.

Turning to `N#Cc1cc2c(c(Cl)c1OCCCl)CCCC2c1cnc2[nH]ncc2c1` (stereo not drawn) [HANT-150B, 4-chloro-3-(2-chloroethoxy)-8-(1H-pyrazolo[3,4-b]pyridin-5-yl)-5,6,7,8-tetrahydronaphthalene-2-carbonitrile], the IC50 is greater than 2 µM.

Consider `ClCCOc1c(Cl)cc2c(c1Cl)CCCN2c1cc2cn[nH]c2cn1` [HANT-164, 5,7-dichloro-6-(2-chloroethoxy)-1-(1H-pyrazolo[3,4-c]pyridin-5-yl)-1,2,3,4-tetrahydroquinoline], for which the IC50 is greater than 2 µM.
